Among the data in PMC7827406, “Structure–Activity Relationship (SAR) Study of Spautin-1 to Entail the Discovery of Novel NEK4 Inhibitors” (International Journal of Molecular Sciences, 2021) are remaining activity values, retold here.

What all share (assay): biochemical
Common to all, as to parameters: Eurofins KinaseProfiler full panel at Km ATP, residual kinase activity (%) relative to DMSO

In test [1] the target is T1, TAK1(h) (Homo sapiens, UniProt O43318).
T1 construct: gene MAP3K7
T1 sequence (O43318 1-606): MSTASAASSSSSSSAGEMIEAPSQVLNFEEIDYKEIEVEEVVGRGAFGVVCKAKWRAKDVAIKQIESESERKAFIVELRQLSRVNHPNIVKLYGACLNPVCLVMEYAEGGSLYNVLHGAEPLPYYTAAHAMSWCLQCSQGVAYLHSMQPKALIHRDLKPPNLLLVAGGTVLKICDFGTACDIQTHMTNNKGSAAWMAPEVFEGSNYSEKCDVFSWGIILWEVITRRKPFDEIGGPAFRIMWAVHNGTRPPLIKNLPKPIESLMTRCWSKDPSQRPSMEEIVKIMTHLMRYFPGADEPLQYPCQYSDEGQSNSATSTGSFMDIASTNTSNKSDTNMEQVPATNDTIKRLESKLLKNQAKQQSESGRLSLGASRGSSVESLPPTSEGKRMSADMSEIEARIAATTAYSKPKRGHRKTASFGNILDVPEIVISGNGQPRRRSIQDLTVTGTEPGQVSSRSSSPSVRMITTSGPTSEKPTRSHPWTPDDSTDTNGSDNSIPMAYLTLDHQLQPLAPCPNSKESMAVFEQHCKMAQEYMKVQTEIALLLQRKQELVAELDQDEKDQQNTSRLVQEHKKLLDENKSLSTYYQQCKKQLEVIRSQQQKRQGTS
In outline:
(§1)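 Compounds screened at 10 µM in radiometric kinase activity assays at Km ATP, reported as remaining kinase activity (%). A KINOMEscan competition-binding screen at 10 µM measured DNA-tagged kinase retained on immobilized active-site ligand by qPCR.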

Test [2] deals with T2, PDGFRβ(h) (Homo sapiens, UniProt P09619).
T2 construct: gene PDGFRB
T2 sequence (P09619 whole entry): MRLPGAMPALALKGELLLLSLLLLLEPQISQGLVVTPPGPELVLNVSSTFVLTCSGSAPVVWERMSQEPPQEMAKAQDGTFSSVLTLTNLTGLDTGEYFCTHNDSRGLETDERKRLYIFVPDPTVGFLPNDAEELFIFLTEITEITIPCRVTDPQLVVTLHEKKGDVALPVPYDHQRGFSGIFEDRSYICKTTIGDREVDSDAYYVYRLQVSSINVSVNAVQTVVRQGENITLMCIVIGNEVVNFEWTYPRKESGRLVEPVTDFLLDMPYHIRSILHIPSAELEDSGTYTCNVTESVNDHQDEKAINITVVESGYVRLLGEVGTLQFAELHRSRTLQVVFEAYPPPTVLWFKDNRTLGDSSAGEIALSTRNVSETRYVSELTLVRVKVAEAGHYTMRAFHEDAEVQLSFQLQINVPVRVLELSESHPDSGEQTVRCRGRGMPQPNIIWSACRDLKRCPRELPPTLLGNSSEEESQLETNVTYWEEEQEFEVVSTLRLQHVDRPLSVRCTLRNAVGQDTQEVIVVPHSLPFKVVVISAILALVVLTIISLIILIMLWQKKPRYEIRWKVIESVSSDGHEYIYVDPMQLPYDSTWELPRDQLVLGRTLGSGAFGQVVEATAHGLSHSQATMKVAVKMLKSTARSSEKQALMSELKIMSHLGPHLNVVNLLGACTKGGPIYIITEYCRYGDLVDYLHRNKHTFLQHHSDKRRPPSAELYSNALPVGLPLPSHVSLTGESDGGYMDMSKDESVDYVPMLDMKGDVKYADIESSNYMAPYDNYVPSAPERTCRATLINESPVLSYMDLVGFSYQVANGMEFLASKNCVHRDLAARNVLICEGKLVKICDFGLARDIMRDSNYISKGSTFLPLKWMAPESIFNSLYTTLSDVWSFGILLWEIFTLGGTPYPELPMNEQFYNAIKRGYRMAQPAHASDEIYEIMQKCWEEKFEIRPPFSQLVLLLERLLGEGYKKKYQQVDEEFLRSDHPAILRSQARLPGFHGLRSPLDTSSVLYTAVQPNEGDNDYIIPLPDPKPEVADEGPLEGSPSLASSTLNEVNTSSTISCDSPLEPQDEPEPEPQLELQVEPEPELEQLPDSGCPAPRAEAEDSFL
A digest of the protocol:
as §1

For test [3], the target named is WNK3(h) (Homo sapiens, UniProt Q9BYP7). A digest of the protocol:
as §1

Test [4] concerns the target T3, PKCβI(h) (Homo sapiens, UniProt P05771).
T3 construct: gene PRKCB; isoform beta I
In outline:
as §1

The target of test [5] is T4, Src(1-530)(h) (Homo sapiens, UniProt P12931).
T4 construct: residues 1-530
In outline:
as §1

The target of test [6] is T5, PDHK4(h) (Homo sapiens, UniProt Q16654).
T5 construct: gene PDK4
T5 sequence (Q16654 whole entry): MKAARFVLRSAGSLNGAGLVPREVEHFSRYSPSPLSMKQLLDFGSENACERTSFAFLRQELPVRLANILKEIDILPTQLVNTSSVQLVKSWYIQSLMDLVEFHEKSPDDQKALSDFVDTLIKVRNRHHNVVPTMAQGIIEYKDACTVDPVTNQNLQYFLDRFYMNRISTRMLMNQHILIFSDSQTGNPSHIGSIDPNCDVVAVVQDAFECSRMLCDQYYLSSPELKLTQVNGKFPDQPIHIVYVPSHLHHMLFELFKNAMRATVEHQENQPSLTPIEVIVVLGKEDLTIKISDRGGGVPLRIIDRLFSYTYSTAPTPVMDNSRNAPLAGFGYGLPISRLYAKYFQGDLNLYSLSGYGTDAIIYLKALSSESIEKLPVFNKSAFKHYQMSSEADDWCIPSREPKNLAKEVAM
In outline: as §1

Test [7] deals with CaMKK2(h) (Homo sapiens, UniProt Q96RR4). A digest of the protocol: as §1
CaMKK2(h), sequence (Q96RR4 whole entry): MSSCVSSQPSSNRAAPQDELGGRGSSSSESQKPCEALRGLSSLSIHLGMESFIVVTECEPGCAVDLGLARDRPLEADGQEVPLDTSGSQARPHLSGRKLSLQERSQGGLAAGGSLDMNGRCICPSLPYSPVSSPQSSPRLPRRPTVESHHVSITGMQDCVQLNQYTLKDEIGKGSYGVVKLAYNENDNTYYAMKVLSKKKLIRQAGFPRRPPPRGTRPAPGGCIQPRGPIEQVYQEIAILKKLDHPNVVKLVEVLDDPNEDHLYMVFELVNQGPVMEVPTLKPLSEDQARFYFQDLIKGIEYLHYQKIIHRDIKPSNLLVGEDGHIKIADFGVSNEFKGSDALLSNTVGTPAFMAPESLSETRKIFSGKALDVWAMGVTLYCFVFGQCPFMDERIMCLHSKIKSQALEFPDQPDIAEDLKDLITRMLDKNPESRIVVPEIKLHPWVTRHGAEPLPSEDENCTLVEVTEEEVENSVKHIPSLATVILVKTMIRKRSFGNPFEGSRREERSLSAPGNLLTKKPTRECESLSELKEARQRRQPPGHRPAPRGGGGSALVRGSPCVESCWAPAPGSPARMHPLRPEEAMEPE
Test [8] has as its target T6, ZIPK(h) (Homo sapiens, UniProt O43293).
T6 construct: gene DAPK3
A digest of the protocol:
as §1

In test [9] the target is EGFR(T790M,L858R)(h) (Homo sapiens, UniProt P00533, L858R/T790M). In outline:
as §1

Test [10] concerns the target T7, ChaK1(h) (Homo sapiens, UniProt Q96QT4).
T7 construct: gene TRPM7
In outline: as §1

The target of test [11] is T8, PDK1(h) (Homo sapiens, UniProt O15530).
T8 construct: gene PDPK1
T8 sequence (O15530 1-556): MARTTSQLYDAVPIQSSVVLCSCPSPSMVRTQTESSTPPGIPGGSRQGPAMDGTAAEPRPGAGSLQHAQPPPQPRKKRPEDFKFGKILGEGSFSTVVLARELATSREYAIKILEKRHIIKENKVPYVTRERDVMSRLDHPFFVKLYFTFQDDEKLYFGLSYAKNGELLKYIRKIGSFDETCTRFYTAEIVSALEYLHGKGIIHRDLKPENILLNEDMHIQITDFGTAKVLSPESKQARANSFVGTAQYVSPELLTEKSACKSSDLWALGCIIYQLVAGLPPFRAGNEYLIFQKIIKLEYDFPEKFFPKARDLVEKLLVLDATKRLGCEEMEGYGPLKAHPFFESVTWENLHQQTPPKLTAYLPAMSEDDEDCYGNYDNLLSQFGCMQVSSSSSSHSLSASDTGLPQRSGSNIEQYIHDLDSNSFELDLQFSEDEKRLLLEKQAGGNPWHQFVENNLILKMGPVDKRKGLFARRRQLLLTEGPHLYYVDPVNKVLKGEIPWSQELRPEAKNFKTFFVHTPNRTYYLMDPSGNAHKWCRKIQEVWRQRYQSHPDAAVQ
In outline:
as §1

Test [12] concerns the target T9, cSRC(h) (Homo sapiens, UniProt P12931).
T9 construct: gene SRC
A digest of the protocol: as §1

Setting [13] is: read-out: Residual activity (%) Spautin-1 5aa.
[14] abbreviates: read-out: Residual activity (%) 5as.
Setting [15] is: read-out: Residual activity (%) 5at.
Where [16] appears, read: read-out: Residual activity (%) 5ay.

Where two headings read alike, the source gives them in different places.

EGFR(T790M,L858R)(h), sequence (P00533 whole entry T790M/L858R): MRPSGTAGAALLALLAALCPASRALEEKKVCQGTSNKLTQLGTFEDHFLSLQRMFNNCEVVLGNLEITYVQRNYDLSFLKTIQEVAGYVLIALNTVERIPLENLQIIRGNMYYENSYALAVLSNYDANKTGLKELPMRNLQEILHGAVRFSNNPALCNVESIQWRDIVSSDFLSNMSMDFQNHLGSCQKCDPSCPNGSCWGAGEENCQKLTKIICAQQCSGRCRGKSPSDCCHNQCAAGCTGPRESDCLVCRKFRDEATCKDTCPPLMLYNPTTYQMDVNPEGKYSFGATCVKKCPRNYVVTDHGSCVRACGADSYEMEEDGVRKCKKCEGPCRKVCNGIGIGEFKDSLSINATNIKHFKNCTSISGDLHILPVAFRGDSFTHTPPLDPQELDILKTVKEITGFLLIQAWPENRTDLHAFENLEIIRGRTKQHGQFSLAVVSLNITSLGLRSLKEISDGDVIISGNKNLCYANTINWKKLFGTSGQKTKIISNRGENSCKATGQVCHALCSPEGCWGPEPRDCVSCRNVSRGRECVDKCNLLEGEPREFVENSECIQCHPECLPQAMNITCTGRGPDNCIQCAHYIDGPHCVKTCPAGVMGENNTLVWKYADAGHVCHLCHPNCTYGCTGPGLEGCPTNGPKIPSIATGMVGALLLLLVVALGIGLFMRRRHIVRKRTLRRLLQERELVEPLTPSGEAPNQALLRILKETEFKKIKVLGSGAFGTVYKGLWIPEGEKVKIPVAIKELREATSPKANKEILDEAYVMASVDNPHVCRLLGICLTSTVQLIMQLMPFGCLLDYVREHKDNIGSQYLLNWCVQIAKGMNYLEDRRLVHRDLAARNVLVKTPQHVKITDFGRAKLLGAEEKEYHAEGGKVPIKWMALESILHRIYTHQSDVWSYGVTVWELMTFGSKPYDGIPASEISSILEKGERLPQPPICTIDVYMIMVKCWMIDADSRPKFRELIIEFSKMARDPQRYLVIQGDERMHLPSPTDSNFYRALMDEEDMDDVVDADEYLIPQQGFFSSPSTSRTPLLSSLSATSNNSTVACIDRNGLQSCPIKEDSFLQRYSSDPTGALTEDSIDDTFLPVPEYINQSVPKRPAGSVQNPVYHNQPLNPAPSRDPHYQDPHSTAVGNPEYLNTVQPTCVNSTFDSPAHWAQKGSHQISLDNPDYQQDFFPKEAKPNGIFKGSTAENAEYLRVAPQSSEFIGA
WNK3(h), sequence (Q9BYP7 whole entry): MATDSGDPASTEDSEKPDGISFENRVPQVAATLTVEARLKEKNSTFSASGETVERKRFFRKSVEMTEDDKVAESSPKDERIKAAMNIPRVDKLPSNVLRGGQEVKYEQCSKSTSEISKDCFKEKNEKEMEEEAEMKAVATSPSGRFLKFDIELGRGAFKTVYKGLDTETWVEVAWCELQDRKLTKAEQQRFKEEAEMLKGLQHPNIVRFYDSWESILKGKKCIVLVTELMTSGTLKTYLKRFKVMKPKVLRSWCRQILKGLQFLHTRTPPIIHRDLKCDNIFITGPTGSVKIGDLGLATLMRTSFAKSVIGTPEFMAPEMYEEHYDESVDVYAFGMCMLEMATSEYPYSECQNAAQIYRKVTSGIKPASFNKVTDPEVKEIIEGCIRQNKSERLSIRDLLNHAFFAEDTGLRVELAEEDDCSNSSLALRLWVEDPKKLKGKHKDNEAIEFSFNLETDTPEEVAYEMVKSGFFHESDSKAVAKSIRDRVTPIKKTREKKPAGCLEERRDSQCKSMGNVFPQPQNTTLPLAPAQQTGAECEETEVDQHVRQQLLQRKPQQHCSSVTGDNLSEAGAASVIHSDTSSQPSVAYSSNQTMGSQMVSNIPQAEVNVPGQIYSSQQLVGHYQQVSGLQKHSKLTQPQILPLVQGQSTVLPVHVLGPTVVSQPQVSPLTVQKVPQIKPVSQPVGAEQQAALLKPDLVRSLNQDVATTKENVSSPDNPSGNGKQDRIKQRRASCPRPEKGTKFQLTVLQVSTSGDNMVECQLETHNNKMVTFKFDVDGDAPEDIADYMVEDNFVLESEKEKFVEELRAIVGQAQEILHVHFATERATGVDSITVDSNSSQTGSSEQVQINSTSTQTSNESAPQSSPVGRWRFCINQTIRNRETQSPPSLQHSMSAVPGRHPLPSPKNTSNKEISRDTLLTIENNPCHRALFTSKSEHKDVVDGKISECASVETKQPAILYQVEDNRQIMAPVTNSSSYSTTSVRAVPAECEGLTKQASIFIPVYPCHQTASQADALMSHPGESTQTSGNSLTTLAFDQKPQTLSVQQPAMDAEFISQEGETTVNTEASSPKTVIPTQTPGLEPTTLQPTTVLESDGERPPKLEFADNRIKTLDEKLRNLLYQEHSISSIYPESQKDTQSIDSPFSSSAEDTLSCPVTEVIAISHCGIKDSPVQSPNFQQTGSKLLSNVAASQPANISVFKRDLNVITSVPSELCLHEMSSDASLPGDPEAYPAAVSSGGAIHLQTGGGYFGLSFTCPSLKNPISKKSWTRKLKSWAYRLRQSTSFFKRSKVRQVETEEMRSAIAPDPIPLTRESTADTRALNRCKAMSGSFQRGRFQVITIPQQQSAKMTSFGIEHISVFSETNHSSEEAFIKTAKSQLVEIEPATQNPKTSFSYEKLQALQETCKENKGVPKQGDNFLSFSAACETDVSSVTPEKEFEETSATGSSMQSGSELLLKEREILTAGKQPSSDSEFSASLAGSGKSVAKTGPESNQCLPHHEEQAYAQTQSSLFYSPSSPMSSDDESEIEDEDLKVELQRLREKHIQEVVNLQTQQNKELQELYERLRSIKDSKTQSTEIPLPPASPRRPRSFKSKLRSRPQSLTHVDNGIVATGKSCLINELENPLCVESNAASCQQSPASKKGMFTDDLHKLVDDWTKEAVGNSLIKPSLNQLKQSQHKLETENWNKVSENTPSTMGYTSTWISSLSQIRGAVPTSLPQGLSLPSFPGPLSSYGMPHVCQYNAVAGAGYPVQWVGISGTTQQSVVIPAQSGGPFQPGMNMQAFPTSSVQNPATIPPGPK

With `Fc1ccc(CNc2ncnc3ccc(F)cc23)cc1` [5aa, 6-Fluoro-N-(4-fluorobenzyl)-4-Quinazolinamine], the remaining activity at 10 µM in [1] (setting [13]) amounted to 74%; in test [2] (setting [13]), 97%; in [3] (setting [13]) it was 90%; in test [4] (setting [13]), 95%; in test [5] (setting [13]), 107%; in [6] (setting [13]), 106%. Also, the remaining activity at 10 µM in [7] (setting [13]) came to 79%; in test [8] (setting [13]) it was 97%; in test [9] (setting [13]), 96%; in [10] (setting [13]), 86%; in [11] (setting [13]) it was 102%; in test [12] (setting [13]) it was 133%.

For the compound `Fc1ccc(CCNc2ncnc3ccc(F)cc23)cc1` [5as, 6-Fluoro-N-[2-(4-Fluorophenyl)Ethyl]-4-Quinazolinamine], the remaining activity at 10 µM in test [1] (setting [14]) was 83%; in test [2] (setting [14]), 104%; in test [3] (setting [14]), 98%; in test [4] (setting [14]), 100%; in test [5] (setting [14]), 101%; in test [6] (setting [14]), 102%. Further, the remaining activity at 10 µM in [7] (setting [14]) is 87%; in test [8] (setting [14]), 103%; in [9] (setting [14]) it was 93%; in [10] (setting [14]), 81%; in test [11] (setting [14]), 88%; in test [12] (setting [14]), 81%.

In the case of `Fc1ccc2ncnc(NCCc3ccc(Cl)cc3)c2c1` [5at, N-[2-(4-Chlorophenyl)Ethyl]-6-Fluoro-4-Quinazolinamine], the remaining activity at 10 µM in test [1] (setting [15]) stood at 82%; in [2] (setting [15]) it was 109%; in test [3] (setting [15]), 86%; in test [4] (setting [15]) it was 93%; in test [5] (setting [15]), 81%; in test [6] (setting [15]), 101%. The remaining activity at 10 µM in test [7] (setting [15]) is 96%; in test [8] (setting [15]), 109%; in test [9] (setting [15]), 85%; in test [10] (setting [15]), 82%; in [11] (setting [15]), 84%; in [12] (setting [15]) it was 120%.

With `COc1ccc2ncnc(Nc3cccc(F)c3)c2c1` [5ay, N-(3-Fluorophenyl)-6-Methoxy-4-Quinazolinamine], the remaining activity at 10 µM was 74% in test [1] (setting [16]); 113% in [2] (setting [16]); 104% in test [3] (setting [16]); 86% in [4] (setting [16]); 90% in test [5] (setting [16]); 104% in test [6] (setting [16]). In addition, the remaining activity at 10 µM in test [7] (setting [16]) amounted to 78%; in [8] (setting [16]), 108%; in test [9] (setting [16]) it was 69%; in test [10] (setting [16]), 77%; in test [11] (setting [16]), 90%; in test [12] (setting [16]), 106%.
